PubChem BioAssay (NCI)
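These data come from cells grown in 96-well plates and exposed to compound for 48 hours at five concentrations. At the GI50, growth is halved. TGI: concentration producing complete growth inhibition.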

Experiments:
Experiment in all cases: DTP human tumour cell line panel, 48 h
A549 NSCLC = test system: A549 NSCLC
ACHN renal = test system: ACHN renal
HCT-116 colon = test system: HCT-116 colon
HL-60(TB) leukemia = test system: HL-60(TB) leukemia
M14 melanoma = test system: M14 melanoma
NCI-H522 lung = test system: NCI-H522 lung
OVCAR-4 ovarian = test system: OVCAR-4 ovarian
SF-295 CNS = test system: SF-295 CNS

CNC(=S)NC(=O)c1c(Cl)n(C(=O)OC(C)(C)C)c2ccccc12
GI50 (A549 NSCLC): 84.3 µM | TGI (A549 NSCLC): > 100 µM | GI50 (ACHN renal): 89.6 µM | TGI (ACHN renal): > 100 µM | GI50 (HCT-116 colon): 38.5 µM | TGI (HCT-116 colon): > 100 µM | GI50 (HL-60(TB) leukemia): 79.7 µM | TGI (HL-60(TB) leukemia): > 100 µM | GI50 (M14 melanoma): 83 µM | TGI (M14 melanoma): > 100 µM | GI50 (NCI-H522 lung): 30.6 µM | TGI (NCI-H522 lung): 90.9 µM | GI50 (OVCAR-4 ovarian): > 100 µM | TGI (OVCAR-4 ovarian): > 100 µM | GI50 (SF-295 CNS): 56.4 µM | TGI (SF-295 CNS): > 100 µM

C=C1C(C2(C)C(OC(C)=O)CC(=O)OC(C)(COC(C)=O)C2CC(=O)OC)C(OC=O)C(OC(=O)C(O)C(C)CC)C2(C)C(c3ccoc3)CC(=O)C12O (stereo not given)
TGI (A549 NSCLC): > 100 µM | TGI (ACHN renal): > 52.8 µM | TGI (HCT-116 colon): > 100 µM | TGI (HL-60(TB) leukemia): 0.414 µM | TGI (M14 melanoma): > 100 µM | TGI (NCI-H522 lung): > 100 µM | TGI (OVCAR-4 ovarian): > 100 µM | TGI (SF-295 CNS): > 100 µM

O=C(O)CCCSc1ccccc1
TGI (A549 NSCLC): > 100 µM | TGI (ACHN renal): > 100 µM | TGI (HCT-116 colon): > 100 µM | TGI (HL-60(TB) leukemia): > 100 µM | TGI (M14 melanoma): > 100 µM | TGI (NCI-H522 lung): > 100 µM | TGI (OVCAR-4 ovarian): > 100 µM | TGI (SF-295 CNS): > 100 µM

NC[C@H]1Nc2ccccc2[C@@H](O)C1O (stereo not given in full)
TGI (A549 NSCLC): > 100 µM | TGI (ACHN renal): > 100 µM | TGI (HCT-116 colon): > 100 µM | TGI (HL-60(TB) leukemia): > 100 µM | TGI (M14 melanoma): > 100 µM | TGI (OVCAR-4 ovarian): > 100 µM | TGI (SF-295 CNS): > 100 µM

COC(=O)CC[C@]1(C)O[C@H]2[C@H]([C@@H](C)CCCC(C)=O)OC(=O)[C@@H]2C[C@H]1O
GI50 (A549 NSCLC): > 100 µM | TGI (A549 NSCLC): > 100 µM | GI50 (ACHN renal): > 100 µM | TGI (ACHN renal): > 100 µM | GI50 (HCT-116 colon): > 100 µM | TGI (HCT-116 colon): > 100 µM | GI50 (HL-60(TB) leukemia): > 100 µM | TGI (HL-60(TB) leukemia): > 100 µM | GI50 (NCI-H522 lung): > 100 µM | TGI (NCI-H522 lung): > 100 µM | GI50 (OVCAR-4 ovarian): > 100 µM | TGI (OVCAR-4 ovarian): > 100 µM | GI50 (SF-295 CNS): > 100 µM | TGI (SF-295 CNS): > 100 µM

O=C1c2ccccc2-c2oc(=O)c3ccccc3c21
TGI (ACHN renal): > 100 µM | TGI (HCT-116 colon): > 100 µM | TGI (HL-60(TB) leukemia): > 100 µM | TGI (M14 melanoma): > 100 µM | TGI (NCI-H522 lung): > 100 µM | TGI (OVCAR-4 ovarian): > 100 µM | TGI (SF-295 CNS): > 100 µM

COc1ccc(-c2cc(-c3cccn3C)c(C#N)c(=O)[nH]2)cc1OC
GI50 (A549 NSCLC): > 100 µM | TGI (A549 NSCLC): > 100 µM | GI50 (ACHN renal): > 100 µM | TGI (ACHN renal): > 100 µM | GI50 (HCT-116 colon): > 100 µM | TGI (HCT-116 colon): > 100 µM | GI50 (NCI-H522 lung): > 100 µM | TGI (NCI-H522 lung): > 100 µM | GI50 (OVCAR-4 ovarian): > 100 µM | TGI (OVCAR-4 ovarian): > 100 µM | GI50 (SF-295 CNS): > 100 µM | TGI (SF-295 CNS): > 100 µM

CCC(=O)Nc1ccccc1C#C/C=C\C#Cc1ccccc1SC
GI50 (A549 NSCLC): 3.35 µM | TGI (A549 NSCLC): > 100 µM | GI50 (ACHN renal): 30.1 µM | TGI (ACHN renal): > 100 µM | GI50 (HCT-116 colon): 5.61 µM | TGI (HCT-116 colon): > 100 µM | GI50 (HL-60(TB) leukemia): 1.46 µM | TGI (HL-60(TB) leukemia): > 100 µM | GI50 (M14 melanoma): 12 µM | TGI (M14 melanoma): > 100 µM | GI50 (NCI-H522 lung): 8.89 µM | TGI (NCI-H522 lung): > 100 µM | GI50 (OVCAR-4 ovarian): 30.1 µM | TGI (OVCAR-4 ovarian): > 100 µM

CC(=Nc1ccccc1)C1=C(O)C(Cc2ccc(O)cc2)NC1=O (stereo not given)
GI50 (A549 NSCLC): 0.126 µM | TGI (A549 NSCLC): > 100 µM | GI50 (ACHN renal): 0.0738 µM | TGI (ACHN renal): > 100 µM | GI50 (HCT-116 colon): 0.0503 µM | TGI (HCT-116 colon): 1.93 µM | GI50 (HL-60(TB) leukemia): 0.0376 µM | TGI (HL-60(TB) leukemia): 0.176 µM | GI50 (M14 melanoma): 0.0469 µM | TGI (M14 melanoma): 0.269 µM | GI50 (OVCAR-4 ovarian): 0.385 µM | TGI (OVCAR-4 ovarian): > 100 µM

O=C1O/C(=C\c2ccccc2)N(c2ccccc2)C1=O
TGI (A549 NSCLC): > 100 µM | TGI (ACHN renal): > 100 µM | TGI (HCT-116 colon): > 100 µM | TGI (HL-60(TB) leukemia): > 100 µM | TGI (M14 melanoma): > 100 µM | TGI (NCI-H522 lung): > 100 µM | TGI (OVCAR-4 ovarian): > 100 µM

Cc1ccc(NC2=C(Cl)C(=O)N(Cc3ccc(Cl)cc3)C2=O)cc1O
GI50 (A549 NSCLC): 10.5 µM | TGI (A549 NSCLC): 29.2 µM | GI50 (HCT-116 colon): 6.57 µM | TGI (HCT-116 colon): 29 µM | GI50 (HL-60(TB) leukemia): 54.8 µM | TGI (HL-60(TB) leukemia): > 100 µM | GI50 (M14 melanoma): 13.8 µM | TGI (M14 melanoma): 38 µM | GI50 (NCI-H522 lung): 11.6 µM | TGI (NCI-H522 lung): 34.3 µM | GI50 (OVCAR-4 ovarian): 25.4 µM | TGI (OVCAR-4 ovarian): > 100 µM | GI50 (SF-295 CNS): 4.04 µM | TGI (SF-295 CNS): 19.8 µM

COc1cc(-c2ccc(-c3ccc(C(=N)N)nc3)s2)cc(OC)c1OC
GI50 (A549 NSCLC): 2.06 µM | TGI (A549 NSCLC): 4.51 µM | GI50 (ACHN renal): 1.73 µM | TGI (ACHN renal): 3.14 µM | GI50 (HCT-116 colon): 1.47 µM | TGI (HCT-116 colon): 2.87 µM | GI50 (HL-60(TB) leukemia): 1.87 µM | TGI (HL-60(TB) leukemia): 4.21 µM | GI50 (M14 melanoma): 1.66 µM | TGI (M14 melanoma): 3.33 µM | GI50 (NCI-H522 lung): 1.8 µM | TGI (NCI-H522 lung): 4.14 µM | GI50 (OVCAR-4 ovarian): 2.69 µM | TGI (OVCAR-4 ovarian): 10.4 µM

NC1CCC(Nc2nc(NCc3ccc(-c4ccccc4O)nc3)c3ncn(C4CCCC4)c3n2)CC1 (stereo not given)
GI50 (A549 NSCLC): < 0.01 µM | TGI (A549 NSCLC): 1.18 µM | GI50 (ACHN renal): 0.14 µM | TGI (ACHN renal): 1.07 µM | GI50 (HCT-116 colon): 0.0317 µM | TGI (HCT-116 colon): 1.15 µM | GI50 (HL-60(TB) leukemia): < 0.01 µM | GI50 (M14 melanoma): 0.0112 µM | TGI (M14 melanoma): 0.0552 µM | GI50 (NCI-H522 lung): < 0.01 µM | TGI (NCI-H522 lung): 0.01 µM | GI50 (SF-295 CNS): 0.0295 µM | TGI (SF-295 CNS): 0.219 µM

N#Cc1ccc2c(c1)C(=O)c1c-2n(CCCCl)c(=O)c2cc([N+](=O)[O-])ccc12
GI50 (ACHN renal): 1.91 µM | TGI (ACHN renal): 6.59 µM | GI50 (HCT-116 colon): 1.82 µM | TGI (HCT-116 colon): > 100 µM | GI50 (HL-60(TB) leukemia): 11.4 µM | TGI (HL-60(TB) leukemia): 29.9 µM | GI50 (M14 melanoma): 4.64 µM | TGI (M14 melanoma): > 100 µM | GI50 (NCI-H522 lung): 3.07 µM | TGI (NCI-H522 lung): 24.3 µM | GI50 (OVCAR-4 ovarian): 60.8 µM | TGI (OVCAR-4 ovarian): > 100 µM | GI50 (SF-295 CNS): 4.21 µM | TGI (SF-295 CNS): > 100 µM
